{"source": "patent US8217085B2", "about": "(priority 2009, dated 2012)", "test_system": "ATCC strain 43300 Staphylococcus aureus", "key": {"[1]": {"conditions": "5% MSM, 12 μg/ml oxacillin, 24 hours"}, "[2]": {"conditions": "5% MSM, 30 μg/ml oxacillin, 24 hours"}, "[3]": {"conditions": "5% MSM, 60 μg/ml oxacillin, 24 hours"}, "[4]": {"conditions": "6% MSM, 12 μg/ml oxacillin, 24 hours"}, "[5]": {"conditions": "6% MSM, 30 μg/ml oxacillin, 24 hours"}, "[6]": {"conditions": "6% MSM, 60 μg/ml oxacillin, 24 hours"}, "[7]": {"conditions": "7% MSM, 12 μg/ml oxacillin, 24 hours"}, "[8]": {"conditions": "7% MSM, 30 μg/ml oxacillin, 24 hours"}, "[9]": {"conditions": "7% MSM, 60 μg/ml oxacillin, 24 hours"}, "[10]": {"conditions": "8% MSM, 12 μg/ml oxacillin, 24 hours"}, "[11]": {"conditions": "8% MSM, 30 μg/ml oxacillin, 24 hours"}, "[12]": {"conditions": "8% MSM, 60 μg/ml oxacillin, 24 hours"}, "[13]": {"conditions": "9% MSM, 12 μg/ml oxacillin, 24 hours"}, "[14]": {"conditions": "9% MSM, 30 μg/ml oxacillin, 24 hours"}, "[15]": {"conditions": "9% MSM, 60 μg/ml oxacillin, 24 hours"}, "[16]": {"conditions": "10% MSM, 12 μg/ml oxacillin, 24 hours"}, "[17]": {"conditions": "10% MSM, 12 μg/ml oxacillin, 48 hours"}, "[18]": {"conditions": "10% MSM, 30 μg/ml oxacillin, 24 hours"}, "[19]": {"conditions": "10% MSM, 60 μg/ml oxacillin, 24 hours"}, "[20]": {"conditions": "11% MSM, 12 μg/ml oxacillin, 24 hours"}, "[21]": {"conditions": "11% MSM, 12 μg/ml oxacillin, 48 hours"}, "[22]": {"conditions": "11% MSM, 30 μg/ml oxacillin, 24 hours"}, "[23]": {"conditions": "11% MSM, 60 μg/ml oxacillin, 24 hours"}}, "note": "Several values for one entry are separate records, joined by “and”; a condition that tells them apart may be missing. Identical values can stand only once. Like-named read-outs stand apart in the source and are kept apart here.", "description": "Additional antibiotic was added every 24 hours.\nUSP<51> Antimicrobial Effectiveness protocol was used as the template experimental paradigm. […] All concentrations were plated out to the 10^−7 dilutionsto ascertain cfu/ml. […] Additional antibiotic was added at the initial concentration every 24 hours.\nATCC strain 43300 Staphylococcus aureus was streaked out for isolations. An isolated colony was chosen, streaked again and incubated. Isolate was chosen and then diluted to a McFarland standard of one. The estimated value was then taken to inoculate tubes containing growth media and 12, 30 or 60 μg/ml oxacillin with approximately 10^5 cfu/ml. These tubes were incubated and plated for counting cfu.\nMaterial was calculated on a 10 ml volume. Sterile oxacillin was added to each experimental condition to a final concentration of 12, 30 or 60 μg/ml antibiotic.\nAll tubes were then inoculated with a dilution of the selected ATCC strain 43300 Staphylococcus aureus clone giving a final level of colony forming units of 3.3×10^5/ml (log=5.52). The tubes were incubated at 25° C. and mixed periodically. Antibiotic was re-inoculated every 24 hours at the initial concentration to maintain pressure on the organism. Plating was done at 24, 48, 72, and 120 hours. Each condition was plated by diluting 1 ml of growth material into 9 ml of MLB diluent broth. […] This mixture was serial diluted down to 10^−7 with 1 ml placed in triplicate in a sterile petri dish at each dilution point. 20 mls of TSA was added to each dilution, swirled and allowed to solidify. All dilutions were placed in a 35° C. incubator for 24 to 72 hours. Bacterial colonies on each plate were counted and the average taken then changed into log format. Any cfu/ml observed greater than 3.3×10^5 (log=5.5) were recorded as >3.3×10^5."}
{"smiles": "CS(C)(=O)=O", "note": "[MSM, methylsulfonylmethane]", "values": [{"measurement": "Average Log", "setting": "[1]", "value": 3.91, "unit": "Log"}, {"measurement": "survival", "setting": "[1]", "value": "8.4 × 10^3 cfu/ml and 8.0 × 10^3 cfu/ml"}, {"measurement": "Average Log", "setting": "5% MSM, 12 μg/ml oxacillin, 48 hours", "value": 3.6, "unit": "Log"}, {"measurement": "Average Log", "setting": "5% MSM, 12 μg/ml oxacillin, 72 hours", "value": 5.5, "unit": "Log"}, {"measurement": "Average Log", "setting": "[2]", "value": 2.51, "unit": "Log"}, {"measurement": "survival", "setting": "[2]", "value": "3.1 × 10^2 cfu/ml and 3.3 × 10^2 cfu/ml"}, {"measurement": "Average Log", "setting": "5% MSM, 30 μg/ml oxacillin, 48 hours", "value": 3.8, "unit": "Log"}, {"measurement": "Average Log", "setting": "5% MSM, 30 μg/ml oxacillin, 72 hours", "value": 5.5, "unit": "Log"}, {"measurement": "Average Log", "setting": "[3]", "value": 2.54, "unit": "Log"}, {"measurement": "survival", "setting": "[3]", "value": "3.5 × 10^2 cfu/ml and 3.3 × 10^2 cfu/ml and 3.6 × 10^2 cfu/ml"}, {"measurement": "Average Log", "setting": "5% MSM, 60 μg/ml oxacillin, 48 hours", "value": 3.5, "unit": "Log"}, {"measurement": "growth", "setting": "5%, 10% and 16% MSM, no antibiotic, 24 hours", "value": "turbid growth"}, {"measurement": "Average Log", "setting": "[4]", "value": 3.92, "unit": "Log"}, {"measurement": "survival", "setting": "[4]", "value": "8.6 × 10^3 cfu/ml and 8.5 × 10^3 cfu/ml and 8.0 × 10^3 cfu/ml"}, {"measurement": "Average Log", "setting": "6% MSM, 12 μg/ml oxacillin, 48 hours", "value": 3.2, "unit": "Log"}, {"measurement": "Average Log", "setting": "6% MSM, 12 μg/ml oxacillin, 72 hours", "value": 5.5, "unit": "Log"}, {"measurement": "Average Log", "setting": "[5]", "value": 2.46, "unit": "Log"}, {"measurement": "survival", "setting": "[5]", "value": "2.9 × 10^2 cfu/ml"}, {"measurement": "Average Log", "setting": "6% MSM, 30 μg/ml oxacillin, 48 hours", "value": 3.7, "unit": "Log"}, {"measurement": "Average Log", "setting": "6% MSM, 30 μg/ml oxacillin, 72 hours", "value": 5.5, "unit": "Log"}, {"measurement": "Average Log", "setting": "[6]", "value": 2.38, "unit": "Log"}, {"measurement": "survival", "setting": "[6]", "value": "2.4 × 10^2 cfu/ml"}, {"measurement": "Average Log", "setting": "6% MSM, 60 μg/ml oxacillin, 48 hours", "value": 1.8, "unit": "Log"}, {"measurement": "Average Log", "setting": "[7]", "value": 3.91, "unit": "Log"}, {"measurement": "survival", "setting": "[7]", "value": "8.2 × 10^3 cfu/ml and 8.5 × 10^3 cfu/ml and 8.3 × 10^3 cfu/ml"}, {"measurement": "Average Log", "setting": "7% MSM, 12 μg/ml oxacillin, 48 hours", "value": 3.9, "unit": "Log"}, {"measurement": "Average Log", "setting": "7% MSM, 12 μg/ml oxacillin, 72 hours", "value": 5.5, "unit": "Log"}, {"measurement": "Average Log", "setting": "[8]", "value": 2.98, "unit": "Log"}, {"measurement": "survival", "setting": "[8]", "value": "9.7 × 10^2 cfu/ml and 9.6 × 10^2 cfu/ml and 9.2 × 10^2 cfu/ml"}, {"measurement": "Average Log", "setting": "7% MSM, 30 μg/ml oxacillin, 48 hours", "value": 2.3, "unit": "Log"}, {"measurement": "Average Log", "setting": "7% MSM, 30 μg/ml oxacillin, 72 hours", "value": 4.5, "unit": "Log"}, {"measurement": "Average Log", "setting": "[9]", "value": 2.34, "unit": "Log"}, {"measurement": "survival", "setting": "[9]", "value": "2.1 × 10^2 cfu/ml and 2.3 × 10^2 cfu/ml"}, {"measurement": "Average Log", "setting": "7% MSM, 60 μg/ml oxacillin, 48 hours", "value": 4.0, "unit": "Log"}, {"measurement": "Average Log", "setting": "[10]", "value": 3.82, "unit": "Log"}, {"measurement": "survival", "setting": "[10]", "value": "6.6 × 10^3 cfu/ml and 6.9 × 10^3 cfu/ml"}, {"measurement": "Average Log", "setting": "8% MSM, 12 μg/ml oxacillin, 48 hours", "value": 3.7, "unit": "Log"}, {"measurement": "Average Log", "setting": "8% MSM, 12 μg/ml oxacillin, 72 hours", "value": 5.5, "unit": "Log"}, {"measurement": "Average Log", "setting": "[11]", "value": 3.07, "unit": "Log"}, {"measurement": "survival", "setting": "[11]", "value": "1.18 × 10^3 cfu/ml and 1.16 × 10^3 cfu/ml"}, {"measurement": "Average Log", "setting": "8% MSM, 30 μg/ml oxacillin, 48 hours", "value": 3.1, "unit": "Log"}, {"measurement": "Average Log", "setting": "8% MSM, 30 μg/ml oxacillin, 72 hours", "value": 5.5, "unit": "Log"}, {"measurement": "Average Log", "setting": "[12]", "value": 2.67, "unit": "Log"}, {"measurement": "survival", "setting": "[12]", "value": "4.6 × 10^2 cfu/ml and 5.0 × 10^2 cfu/ml"}, {"measurement": "Average Log", "setting": "8% MSM, 60 μg/ml oxacillin, 48 hours", "value": 2.8, "unit": "Log"}, {"measurement": "Average Log", "setting": "[13]", "value": 3.72, "unit": "Log"}, {"measurement": "survival", "setting": "[13]", "value": "5.6 × 10^3 cfu/ml and 5.2 × 10^3 cfu/ml and 5.0 × 10^3 cfu/ml"}, {"measurement": "Average Log", "setting": "9% MSM, 12 μg/ml oxacillin, 48 hours", "value": 3.4, "unit": "Log"}, {"measurement": "Average Log", "setting": "9% MSM, 12 μg/ml oxacillin, 72 hours", "value": 4.5, "unit": "Log"}, {"measurement": "Average Log", "setting": "[14]", "value": 3.01, "unit": "Log"}, {"measurement": "survival", "setting": "[14]", "value": "1.06 × 10^3 cfu/ml and 1.05 × 10^3 cfu/ml and 1.02 × 10^3 cfu/ml"}, {"measurement": "Average Log", "setting": "9% MSM, 30 μg/ml oxacillin, 48 hours", "value": 2.4, "unit": "Log"}, {"measurement": "Average Log", "setting": "9% MSM, 30 μg/ml oxacillin, 72 hours", "value": 2.9, "unit": "Log"}, {"measurement": "Average Log", "setting": "[15]", "value": 2.50, "unit": "Log"}, {"measurement": "survival", "setting": "[15]", "value": "3.2 × 10^2 cfu/ml"}, {"measurement": "Average Log", "setting": "9% MSM, 60 μg/ml oxacillin, 48 hours", "value": 2.2, "unit": "Log"}, {"measurement": "Average Log", "setting": "[16]", "value": 3.76, "unit": "Log"}, {"measurement": "survival", "setting": "[16]", "value": "5.8 × 10^3 cfu/ml and 5.6 × 10^3 cfu/ml and 6.0 × 10^3 cfu/ml"}, {"measurement": "Average Log", "setting": "[17]", "value": 2.7, "unit": "Log"}, {"measurement": "survival", "setting": "[17]", "value": "5.6 × 10^2 cfu/ml"}, {"measurement": "Average Log", "setting": "10% MSM, 12 μg/ml oxacillin, 72 hours", "value": 4.0, "unit": "Log"}, {"measurement": "Average Log", "setting": "[18]", "value": 3.32, "unit": "Log"}, {"measurement": "survival", "setting": "[18]", "value": "2.2 × 10^3 cfu/ml and 2.0 × 10^3 cfu/ml"}, {"measurement": "Average Log", "setting": "10% MSM, 30 μg/ml oxacillin, 48 hours", "value": 2.6, "unit": "Log"}, {"measurement": "Average Log", "setting": "10% MSM, 30 μg/ml oxacillin, 72 hours", "value": 3.9, "unit": "Log"}, {"measurement": "Average Log", "setting": "[19]", "value": 2.63, "unit": "Log"}, {"measurement": "survival", "setting": "[19]", "value": "4.2 × 10^2 cfu/ml and 4.4 × 10^2 cfu/ml"}, {"measurement": "Average Log", "setting": "10% MSM, 60 μg/ml oxacillin, 48 hours", "value": 2.2, "unit": "Log"}, {"measurement": "Average Log", "setting": "[20]", "value": 3.91, "unit": "Log"}, {"measurement": "survival", "setting": "[20]", "value": "8.2 × 10^3 cfu/ml and 8.5 × 10^3 cfu/ml and 8.0 × 10^3 cfu/ml"}, {"measurement": "Average Log", "setting": "[21]", "value": 2.8, "unit": "Log"}, {"measurement": "survival", "setting": "[21]", "value": "6.4 × 10^2 cfu/ml and 5.8 × 10^2 cfu/ml and 6.5 × 10^2 cfu/ml"}, {"measurement": "Average Log", "setting": "11% MSM, 12 μg/ml oxacillin, 72 hours", "value": 3.6, "unit": "Log"}, {"measurement": "Average Log", "setting": "[22]", "value": 3.57, "unit": "Log"}, {"measurement": "survival", "setting": "[22]", "value": "3.9 × 10^3 cfu/ml and 3.7 × 10^3 cfu/ml"}, {"measurement": "Average Log", "setting": "11% MSM, 30 μg/ml oxacillin, 48 hours", "value": 2.4, "unit": "Log"}, {"measurement": "Average Log", "setting": "11% MSM, 30 μg/ml oxacillin, 72 hours", "value": 3.2, "unit": "Log"}, {"measurement": "Average Log", "setting": "[23]", "value": 2.83, "unit": "Log"}, {"measurement": "survival", "setting": "[23]", "value": "6.7 × 10^2 cfu/ml and 6.9 × 10^2 cfu/ml"}, {"measurement": "Average Log", "setting": "11% MSM, 60 μg/ml oxacillin, 48 hours", "value": 2.1, "unit": "Log"}]}
